Laboratory results from patent US12312352B2, “Use of a DPP-4 inhibitor in SIRS and/or sepsis” (Boehringer ingelheim International GmbH, priority 2012, dated 2025).

Columns and labels:
septic rats = experiment: Survival of septic rats (LPS 10 mg/kg i.p.) with and without linagliptin treatment; format: in vivo, female Wistar rats; settings: 24 hours after LPS 10 mg/kg i.p.; linagliptin diet from 2 days before LPS; LPS alone about 28%; p=0.015 LPS vs. LPS+Linagliptin; preliminary data
Protocol: Animals are injected at day 2 with 10 mg/kg LPS (lipopolysaccharide) i.p. and observed for 4 additional days.
It should be noted that the survival curve only represents preliminary data (“pseudo Kaplan-Meier-curve”) since the exact time point of death of the rats is not assessed. The female Wistar rats are injected with LPS in the morning, monitored during the day and transferred back to the stable in the evening. Deaths are registered in the morning of the next day.

[1] = Mean plasma concentration of linagliptin in rats on linagliptin diet; format: in vivo; settings: diet containing 0.083 mg/kg linagliptin
septic animals = settings: cited from earlier work
[2] = Safety and tolerability in people with type 2 diabetes
septic mice = experiment: Survival in experimental sepsis, first study: LPS 20 mg/kg i.p. on Day 6 of 7 days treatment; settings: linagliptin 5 mg/kg/d in drinking water (p=0.067), liraglutide 0.2 mg/kg/d s.c. injection (p=0.005), placebo/LPS 100% die within 48 h
[3] = Pharmacokinetics of BI 1356 after multiple oral doses (1, 2.5, 5 or 10 mg once daily for 12 days) in patients with type 2 diabetes

CC#CCn1c(N2CCC[C@@H](N)C2)nc2c1c(=O)n(Cc1nc(C)c3ccccc3n1)c(=O)n2C [linagliptin]
mortality (septic rats): No mortality | mean plasma concentration [1]: 50 to 150 nM | vascular dysfunction, vascular inflammation and aortic, cardiac and blood oxidative stress (septic animals; experimental sepsis model): improves vascular dysfunction and vascular inflammation as well as aortic, cardiac, and blood oxidative stress | immune cell infiltration into the vascular tissue (septic animals; septic animals, previous studies): prevention of immune cell infiltration into the vascular tissue | safety and tolerability [2]: placebo-like | survival vs placebo/LPS group (septic mice): trend for a higher survival rate | form and route of excretion ([3]; human, in vivo): primarily excreted unchanged via the bile | main organ of excretion ([3]; therapeutic oral dose levels): mainly excreted via the liver
